In US20220241314A1, “COMPOSITIONS AND METHODS FOR TREATMENT OF HEPATITIS B VIRUS INFECTION” (priority 2019, published 2022):
{ppp} = triphosphate

System: HBV cccDNA
Test: cccDNA levels in HBV-infected RIG-I or MDA5 knockout HepG2-hNTCP cells (Southern blot)
Format: cell-based, HBV (Genotype D)
Conditions: HepG2-hNTCP-NT and HepG2-hNTCP-MKO cells, single treatment at 1 dpi, harvested 3 dpi
Protocol: FIGS. 6A-6D illustrate that F7 and poly-U/UC PAMP specifically signal IRF3 activation through RIG-I to suppress HBV cccDNA. (6A) F7 was administered for 24 hours to HepG2-hNTCP-NT (expressing non-targeting guide RNA), RKO (RIG-I knockout expressing RIG-I-targeting guide RNA), and MKO (MDA5-knock out expressing MDA5-targeting guide RNA). Cells were harvested and analyzed by immunoblot. The levels of protein expression by p-IRF3 (S386 phosphorylated, active IRF3), IRF3 (total IRF), IFIT1, RIG-I, and MDA5 relative to the expression level of tubulin were determined using respective antibodies. (6B) HepG2-hNTCP-NT, RKO, and MKO cells were treated with 100 ng,/ml of X-RNA or 100 ng/ml or 200 ng/ml of poly-U/UC PAMP for 24 hr. Cells were harvested and analyzed by immunoblot as in (6A). (6C and 6D) Cells were infected with HBV at moi of 1000 Geq/cell. After 24 hour cultures were treated with DMSO (−; negative control), CsA (treatment control), (6C) 10 μM) or F7 or (6D) X RNA or poly-U/UC PAMP. Three days later the cells were harvested, Hirt extracts prepared and subjected to Southern blot analysis using as HBV-DNA probe. The positions of mass markers are indicated. Values beneath each lane show percent cccDNA remaining compared to control treatment. […]

## O=C(Nc1ccc2nc(NC(=O)c3ccc4ccccc4c3)sc2c1)c1ccccc1 [F7, N-(6-benzamido-1,3-benzothiazol-2-yl)naphthalene-2-carboxamide]
  cccDNA levels: reduced cccDNA levels

B1: poly-U/UC PAMP: ~100 nt PAMP motif from the HCV genome comprising 5′ppp and the poly U/UC region, recognized by RIG-I; formulated in liposome (nucleic acid)
chain: GGCCAUCCUGUUUUUUUCCCUUUUUUUUUUUCUUUUUUUUUUUUUUUUUUUUUUUUUUUUUUUUUUCUCCUUUUUUUUUCCUCUUUUUUUCCUUUUCUUUCCUUU
modifications: RNA, 5' {ppp}, backbone and methylation of C not given here; formulated in liposome
notes: ~100 nt PAMP motif from the HCV genome comprising 5′ppp and the poly U/UC region, recognized by RIG-I; formulated in liposome
  cccDNA levels: cccDNA was suppressed
